Results from PubChem BioAssay (NCI).
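Grown in 96-well plates, cells were treated for 48 hours with each compound at five concentrations. Insufficient inhibition: endpoint recorded as highest concentration tested. Here, GI50 denotes the concentration required for 50% inhibition of growth. TGI: concentration producing complete growth inhibition.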

Legend:
Experiment in all cases: DTP human tumour cell line panel, 48 h
SN12C renal = test system: SN12C renal
U251 CNS = test system: U251 CNS
RPMI-8226 leukemia = test system: RPMI-8226 leukemia
A498 renal = test system: A498 renal
CCRF-CEM leukemia = test system: CCRF-CEM leukemia
TK-10 renal = test system: TK-10 renal
SF-268 CNS = test system: SF-268 CNS
MDA-MB-231 breast = test system: MDA-MB-231 breast
T-47D breast = test system: T-47D breast
SR leukemia = test system: SR leukemia

Row | Structure (SMILES) | GI50 (SN12C renal) [µM] | TGI (SN12C renal) [µM] | GI50 (U251 CNS) [µM] | TGI (U251 CNS) [µM] | GI50 (RPMI-8226 leukemia) [µM] | TGI (RPMI-8226 leukemia) [µM] | GI50 (A498 renal) [µM] | TGI (A498 renal) [µM] | GI50 (CCRF-CEM leukemia) [µM] | TGI (CCRF-CEM leukemia) [µM] | GI50 (TK-10 renal) [µM] | TGI (TK-10 renal) [µM] | GI50 (SF-268 CNS) [µM] | TGI (SF-268 CNS) [µM] | GI50 (MDA-MB-231 breast) [µM] | TGI (MDA-MB-231 breast) [µM] | GI50 (T-47D breast) [µM] | TGI (T-47D breast) [µM] | TGI (SR leukemia) [µM]
1 | Clc1cc(Cl)c(OCC#CI)cc1Cl | 10.1 | 23 | 15.4 | 29.6 | 2.27 | 8.38 | 13.7 | 26.6 | 2.88 | > 100 | 3.45 | 13.2 | 11 | 23.4 | 13.5 | 28 | 1.22 | 3.01 | 
2 | CCOc1ccc2nc(NC(=O)c3c/c(=N\NC(=O)C[N+](C)(C)C)c4ccc(O)cc4o3)sc2c1 |  | 14.5 |  | 10.5 |  | 8.31 |  | 28 |  | 5.96 |  | 36.5 |  | 11.6 |  |  |  |  | 17.3
3 | Cc1ccc(C2=NOC3=c4ccccc4=CSC3=C2c2ccc([N+](=O)[O-])cc2)cc1 | 18.3 | > 100 | 10.3 | 36.1 | 44.4 | > 100 | 10.8 | 26.9 | 39.3 | > 100 | 13 | 40.3 | 18.1 | 46.7 | 8.59 | 28 | 5.22 | 47.1 | 
4 | CCCCCCc1cc(C(=O)Nc2cccc(C(F)(F)F)c2)nc(N)n1 |  | > 100 |  | > 100 |  | > 100 |  | > 100 |  | > 100 |  | > 100 |  | > 100 |  |  |  |  | > 100
5 | CC(C)CC(CC1=CCC2CC1C2(C)C)C1=C(O)C(C)(C)C(=O)C(C)(C)C1=O (stereo not drawn) | 0.324 | > 100 | 0.335 | > 100 | 0.227 | 0.558 | 0.236 | 0.651 | 0.353 | 3.12 | 0.424 | 98.9 | 0.354 | > 100 | 0.247 | 0.717 |  |  | 
6 | O=C(NN1C(=O)CSC12CCCCC2)c1[nH]c2ccc(F)cc2c1-c1ccccc1 | 18.2 | 37.5 | 18.2 | 39.2 | 15.7 | 37 | 27.1 | 76.5 | 29.7 | 96.7 | 19.4 | 35.7 | 22.7 | 59.6 | 18.8 | 45.8 | 35.6 | > 100 | 
7 | c1ccc2c(C3NCCc4[nH]cnc43)cccc2c1 (stereo not drawn) |  | > 100 |  | > 100 |  | > 100 |  | > 100 |  | > 100 |  | > 100 |  | > 100 |  |  |  |  | > 100
8 | CCCCCCCCCCCCCCCCCC(=O)OCC(COC1OC(COP(=O)(O)O)C(O)C(O)C1O)OC(=O)CCCCCCCCCCCCCCCCC (stereo not drawn) |  | 14.1 |  | 14.7 |  | 23.1 |  | 12.5 |  | 14.4 |  | 17.6 |  | 17 |  | 9.24 |  | 28.9 | 
